Assay results from ChEMBL document CHEMBL1130562, “Potent and selective inhibitors of the Abl-kinase: phenylamino-pyrimidine (PAP) derivatives” (Bioorg Med Chem Lett, 1997).

Key:
[1] = target: cAMP-dependent protein kinase (PKA) (Homo sapiens, UniProt P22694+P17612+P22612); experiment: Inhibition of protein kinase A.; assay type: protein assay, unidentified
[2] = target: Tyrosine-protein kinase ABL1 (Homo sapiens, UniProt P00519)
Description: Inhibition of v-Abl tyrosine kinase.

[3] = target: Protein kinase C delta type (Homo sapiens, UniProt Q05655); experiment: Inhibition of protein kinase C delta.
[4] = target: Protein kinase C alpha type (Homo sapiens, UniProt P17252); experiment: Inhibition of protein kinase C alpha.
[5] = target: Platelet-derived growth factor receptor (Homo sapiens, UniProt P09619+P16234); experiment: Inhibition of the platelet-derived growth factor receptor.
[6] = target: Epidermal growth factor receptor (Homo sapiens, UniProt P00533)
Description: Inhibition of the epidermal growth factor receptor.

[7] = target: Proto-oncogene tyrosine-protein kinase Src (Homo sapiens, UniProt P12931)
Description: Inhibition of c-Src-tyrosine kinase.

[8] = Dissociation constant pKa was determined; assay type: physicochemical

Proto-oncogene tyrosine-protein kinase Src, sequence (P12931 2-536 limits assumed): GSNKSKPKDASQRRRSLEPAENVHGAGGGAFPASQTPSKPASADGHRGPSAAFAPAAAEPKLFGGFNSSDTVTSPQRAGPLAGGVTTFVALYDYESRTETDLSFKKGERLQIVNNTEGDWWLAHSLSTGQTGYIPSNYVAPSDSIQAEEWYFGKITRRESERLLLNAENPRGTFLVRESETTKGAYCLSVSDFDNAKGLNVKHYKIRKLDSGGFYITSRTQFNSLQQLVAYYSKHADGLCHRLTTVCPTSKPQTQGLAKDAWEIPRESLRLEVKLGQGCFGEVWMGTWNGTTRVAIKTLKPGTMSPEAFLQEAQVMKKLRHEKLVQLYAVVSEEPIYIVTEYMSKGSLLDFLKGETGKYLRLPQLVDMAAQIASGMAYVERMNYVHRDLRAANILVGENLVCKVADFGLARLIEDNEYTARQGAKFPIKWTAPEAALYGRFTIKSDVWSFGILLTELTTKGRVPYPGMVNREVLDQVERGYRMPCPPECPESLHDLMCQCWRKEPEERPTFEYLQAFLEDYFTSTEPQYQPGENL
Tyrosine-protein kinase ABL1, sequence (P00519 whole entry, looked up): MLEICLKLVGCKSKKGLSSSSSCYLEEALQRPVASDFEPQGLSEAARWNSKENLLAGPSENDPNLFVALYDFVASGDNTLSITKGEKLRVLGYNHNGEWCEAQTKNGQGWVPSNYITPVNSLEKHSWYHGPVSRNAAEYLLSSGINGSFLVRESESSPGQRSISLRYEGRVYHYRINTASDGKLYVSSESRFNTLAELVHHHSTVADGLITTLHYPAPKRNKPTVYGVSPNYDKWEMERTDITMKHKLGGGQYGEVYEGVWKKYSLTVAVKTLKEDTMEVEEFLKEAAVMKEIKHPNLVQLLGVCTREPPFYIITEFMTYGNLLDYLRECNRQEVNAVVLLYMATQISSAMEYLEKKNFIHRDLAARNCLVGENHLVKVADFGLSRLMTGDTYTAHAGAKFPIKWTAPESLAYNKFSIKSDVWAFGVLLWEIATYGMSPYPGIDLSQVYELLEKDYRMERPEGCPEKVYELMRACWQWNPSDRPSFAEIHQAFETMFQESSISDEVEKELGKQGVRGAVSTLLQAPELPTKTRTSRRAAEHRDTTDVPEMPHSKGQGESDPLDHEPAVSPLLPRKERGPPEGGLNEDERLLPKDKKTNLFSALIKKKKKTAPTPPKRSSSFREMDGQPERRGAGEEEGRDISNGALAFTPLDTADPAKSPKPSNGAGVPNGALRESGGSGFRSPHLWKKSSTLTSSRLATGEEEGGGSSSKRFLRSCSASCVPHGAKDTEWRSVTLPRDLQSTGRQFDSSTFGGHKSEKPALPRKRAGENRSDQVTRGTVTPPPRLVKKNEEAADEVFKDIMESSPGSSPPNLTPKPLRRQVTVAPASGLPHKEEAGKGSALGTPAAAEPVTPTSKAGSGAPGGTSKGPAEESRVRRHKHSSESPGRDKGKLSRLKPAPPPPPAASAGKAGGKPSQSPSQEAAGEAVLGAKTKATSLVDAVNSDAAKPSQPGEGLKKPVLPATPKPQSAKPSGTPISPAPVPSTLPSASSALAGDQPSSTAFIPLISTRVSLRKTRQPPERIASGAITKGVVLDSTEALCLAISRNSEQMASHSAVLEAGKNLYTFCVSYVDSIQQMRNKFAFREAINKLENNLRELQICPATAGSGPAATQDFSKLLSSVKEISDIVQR
Epidermal growth factor receptor, sequence (P00533 whole entry): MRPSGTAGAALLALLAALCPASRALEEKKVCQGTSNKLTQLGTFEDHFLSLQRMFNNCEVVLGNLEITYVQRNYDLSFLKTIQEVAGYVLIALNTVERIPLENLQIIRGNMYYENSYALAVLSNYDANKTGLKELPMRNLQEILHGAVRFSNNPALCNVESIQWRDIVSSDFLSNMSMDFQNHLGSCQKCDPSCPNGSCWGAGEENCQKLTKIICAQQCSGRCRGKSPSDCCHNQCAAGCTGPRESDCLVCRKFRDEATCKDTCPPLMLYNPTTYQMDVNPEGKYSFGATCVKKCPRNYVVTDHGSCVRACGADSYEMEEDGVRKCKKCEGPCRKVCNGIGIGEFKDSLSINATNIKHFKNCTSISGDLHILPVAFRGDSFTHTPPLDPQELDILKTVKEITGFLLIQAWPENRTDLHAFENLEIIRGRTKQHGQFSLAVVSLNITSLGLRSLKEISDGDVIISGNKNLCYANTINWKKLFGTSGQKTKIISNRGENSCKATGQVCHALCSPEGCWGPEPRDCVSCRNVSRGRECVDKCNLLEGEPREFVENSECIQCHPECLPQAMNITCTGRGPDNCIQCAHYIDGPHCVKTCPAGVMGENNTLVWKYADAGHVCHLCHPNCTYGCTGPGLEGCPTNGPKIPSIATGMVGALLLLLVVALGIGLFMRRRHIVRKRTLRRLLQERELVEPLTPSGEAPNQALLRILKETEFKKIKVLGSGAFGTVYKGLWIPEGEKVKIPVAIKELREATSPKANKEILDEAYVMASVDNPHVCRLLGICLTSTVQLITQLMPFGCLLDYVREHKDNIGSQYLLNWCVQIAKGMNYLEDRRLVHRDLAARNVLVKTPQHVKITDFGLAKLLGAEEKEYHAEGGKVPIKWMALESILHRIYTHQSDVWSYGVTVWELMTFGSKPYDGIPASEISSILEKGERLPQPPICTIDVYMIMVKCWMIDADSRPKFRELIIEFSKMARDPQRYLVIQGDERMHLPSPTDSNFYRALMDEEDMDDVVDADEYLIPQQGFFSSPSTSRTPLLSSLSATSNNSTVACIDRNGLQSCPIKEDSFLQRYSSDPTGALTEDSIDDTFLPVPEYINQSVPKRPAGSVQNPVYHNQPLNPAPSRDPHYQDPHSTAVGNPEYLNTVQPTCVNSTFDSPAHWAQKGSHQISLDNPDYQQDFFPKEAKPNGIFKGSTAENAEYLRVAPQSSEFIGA
Protein kinase C delta type, sequence (Q05655 whole entry): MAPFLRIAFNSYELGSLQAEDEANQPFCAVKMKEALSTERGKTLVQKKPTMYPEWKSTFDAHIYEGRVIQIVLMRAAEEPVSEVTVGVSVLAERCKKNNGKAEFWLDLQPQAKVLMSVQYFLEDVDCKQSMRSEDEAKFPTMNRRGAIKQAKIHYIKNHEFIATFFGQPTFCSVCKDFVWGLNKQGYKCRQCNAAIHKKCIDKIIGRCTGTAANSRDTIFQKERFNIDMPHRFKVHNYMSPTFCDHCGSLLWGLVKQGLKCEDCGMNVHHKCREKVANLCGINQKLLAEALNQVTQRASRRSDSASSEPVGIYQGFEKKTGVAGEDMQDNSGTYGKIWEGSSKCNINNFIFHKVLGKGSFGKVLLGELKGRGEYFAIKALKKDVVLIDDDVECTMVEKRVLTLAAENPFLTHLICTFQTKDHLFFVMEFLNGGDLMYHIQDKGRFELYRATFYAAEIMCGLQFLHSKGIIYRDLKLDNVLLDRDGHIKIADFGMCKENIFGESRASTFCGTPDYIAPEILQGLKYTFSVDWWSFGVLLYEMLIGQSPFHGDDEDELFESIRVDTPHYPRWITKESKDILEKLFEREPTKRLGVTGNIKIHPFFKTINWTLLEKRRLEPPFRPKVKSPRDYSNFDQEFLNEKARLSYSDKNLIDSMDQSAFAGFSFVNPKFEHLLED

Structure (SMILES)	IC50 [1] [µM]	IC50 [2] [µM]	IC50 [3] [µM]	IC50 [4] [µM]	IC50 [5] [µM]	IC50 [6] [µM]	IC50 [7] [µM]	pKa [8]
Cc1ccc(NC(=O)c2ccc3ccccc3c2)cc1Nc1nccc(-c2cccnc2)n1	> 100	0.2	–	–	–	–	–	–
Cc1ccc(C(=O)Nc2ccc(C)c(Nc3nccc(-c4cccnc4)n3)c2)cc1	> 100	–	–	–	–	–	–	–
O=C(Nc1cccc(Nc2nccc(-c3cccnc3)n2)c1)c1ccccc1	> 500	0.4	–	–	–	–	–	–
c1cncc(-c2ccnc(Nc3cccc(-n4ccnc4)c3)n2)c1	> 500	3.3	21	1	18	> 100	1.6	–
O=C(Nc1cccc(Nc2nccc(-c3cccnc3)n2)c1)c1ccccn1	> 500	3.8	–	–	> 100	–	90	–
COc1ccccc1C(=O)Nc1cccc(Nc2nccc(-c3cccnc3)n2)c1	> 500	1.9	> 500	0.32	1	100	> 100	–
O=C(Nc1cccc(Nc2nccc(-c3cccnc3)n2)c1)c1cccnc1	> 500	0.15	17	1.7	50	> 100	9	2.56
CC(=O)Nc1ccc(C)c(Nc2nccc(-c3cccnc3)n2)c1	> 500	5.8	–	500	–	–	–	–
FC(F)C(F)(F)Oc1cccc(Nc2nccc(-c3c[nH]c4ccccc34)n2)c1	73	0.37	1.4	0.29	> 10	1.8	2.2	–
FC(F)C(F)(F)Oc1cccc(Nc2nccc(-c3ccncc3)n2)c1	> 500	> 100	> 100	0.3	> 10	> 100	> 100	–
O=[N+]([O-])c1cccc(Nc2nccc(-c3ccncc3)n2)c1	> 500	61	> 500	2.6	> 100	> 100	> 100	–
O=C(O)c1ccccc1C(=O)Nc1cccc(Nc2nccc(-c3cccnc3)n2)c1	> 500	2	–	–	> 100	–	44	–
O=[N+]([O-])c1cccc(Nc2nccc(-c3cccnc3)n2)c1	> 500	34	> 500	0.79	> 100	100	93	–
CCCCCC(=O)Nc1cccc(Nc2nccc(-c3cccnc3)n2)c1	–	0.2	19	2	0.6	> 100	3.7	–
COC(=O)c1cccc(Nc2nccc(-c3cccnc3)n2)c1	> 500	5.1	–	–	> 10	–	90	–
O=C(O)c1cccc(Nc2nccc(-c3cccnc3)n2)c1	–	8	> 100	45	> 10	–	126	–
FC(F)C(F)(F)Oc1cccc(Nc2nccc(-c3ccc(Cl)cc3)n2)c1	> 500	> 50	> 100	0.85	> 10	> 100	> 100	–
O=C(Nc1cccc(Nc2nccc(-c3cccnc3)n2)c1)C1CCCCC1	> 500	0.45	–	–	0.8	> 100	46	–

Second part, led by results:

IC50 [1] [µM]	IC50 [2] [µM]	IC50 [3] [µM]	IC50 [4] [µM]	IC50 [5] [µM]	IC50 [6] [µM]	IC50 [7] [µM]	Structure (SMILES)	pKa [8]
> 500	0.4	–	–	–	–	–	Cc1ccc(NC(=O)c2ccccc2)cc1Nc1nccc(-c2cccnc2)n1	–
> 100	0.8	> 100	–	–	–	–	Cc1ccc(NC(=O)c2ccc(Cl)cc2)cc1Nc1nccc(-c2cccnc2)n1	–
> 500	1.5	–	240	–	–	–	Cc1ccc(N)cc1Nc1nccc(-c2cccnc2)n1	–
2	0.35	4.4	0.18	5	0.53	0.5	NCCCn1ccc2c(-c3ccnc(Nc4cccc(OC(F)(F)C(F)F)c4)n3)cccc21	–
> 500	1.5	23	1.6	> 10	> 100	> 100	Clc1cccc(Nc2nccc(-c3cccnc3)n2)c1	–
> 500	0.8	> 100	80	–	–	–	COc1ccccc1C(=O)Nc1ccc(C)c(Nc2nccc(-c3cccnc3)n2)c1	–
> 500	0.2	–	–	3	> 50	> 100	O=C(Nc1cccc(Nc2nccc(-c3cccnc3)n2)c1)c1ccc(F)cc1	–
> 500	0.5	24	1.3	> 100	> 100	78	O=C(Nc1cccc(Nc2nccc(-c3cccnc3)n2)c1)c1ccncc1	–
> 500	0.3	–	–	20	> 50	3	O=C(Nc1cccc(Nc2nccc(-c3cccnc3)n2)c1)c1cccs1	–
475	0.1	–	–	0.2	> 100	7.8	CN1CCN(Cc2ccc(C(=O)Nc3cccc(Nc4nccc(-c5cccnc5)n4)c3)cc2)CC1	–
–	0.6	–	–	> 10	–	16	Nc1cccc(Nc2nccc(-c3ccncc3)n2)c1	–
6	0.7	> 500	210	> 100	–	14	Nc1cccc(Nc2nccc(-c3cccnc3)n2)c1	–
> 500	1.8	39	10.5	> 10	100	> 100	c1ccc(Nc2nccc(-c3cccnc3)n2)cc1	–
340	1	34	1.5	> 10	7.1	4.9	c1cc(Nc2nccc(-c3cccnc3)n2)cc(OCCn2ccnc2)c1	–
> 500	1.3	> 500	0.35	1.5	> 100	> 100	N#Cc1ccc(C(=O)Nc2cccc(Nc3nccc(-c4cccnc4)n3)c2)cc1	–
> 500	1	–	–	0.8	> 100	> 100	Cc1ccc(C(=O)Nc2cccc(Nc3nccc(-c4cccnc4)n3)c2)cc1	–
–	0.4	–	–	> 10	–	9.8	NCCCNC(=O)c1cccc(Nc2nccc(-c3cccnc3)n2)c1	–
> 500	1.2	> 500	2.5	> 100	> 100	> 100	O=[N+]([O-])c1cccc(Nc2nccc(-c3ccccn3)n2)c1	–
